Assay results: patent publication US20090202660A1, “Agents and Methods for Osteogenic Oxysterols Inhibition of Oxidative Stress on Osteogenic Cellular Differentiation” (The Regents of the University of California, priority 2005, published 2009)

Key:
osteocalcin mRNA = experiment: Northern blotting for osteocalcin mRNA in M2 cells; assay type: cell-based, mouse; settings: for osteocalcin gene expression: M2 cells in osteogenic medium, up to 14 days; for osteocalcin expression, synergy with osteogenic oxysterols: BMP 50 ng/ml with 22S+20S (SS, 2.5 μM), eight days
Procedure: RNA isolation and Northern blot analysis—Following treatment of cells under appropriate experimental conditions, total RNA was isolated using the RNA isolation kit from Stratagene (La Jolla, Calif., U.S.A.). Total RNA ([…]) was run on a 1% agarose/formaldehyde gel and transferred to Duralon-UV membranes (Strategene, Calif., U.S.A.) and cross-linked with UV light. The membranes were hybridized overnight at 60 degree C. with ^32P-labeled mouse osteocalcin cDNA probe, mouse lipoprotein lipase (LPL), mouse adipocyte protein 2 (aP2) PCR-generated probes, human 28S or 18S rRNA probes obtained from Geneka Biotechnology (Montreal, Quebec, Canada) and Maxim Biotech (San Francisco, Calif., U.S.A.), respectively. The PCR products were generated using primer sets synthesized by Invitrogen (Carlsbad, Calif., U.S.A.) with the following specifications: mouse aP2 gene (accession no. M13261); sense (75-95) 5′-[…]-3′, antisense (362-383) 5′-[…]-3′, generating a PCR product of 309 base pairs. Mouse LPL (accession no. XM—134193); sense (1038-1058) 5′-[…]-3′, antisense (1816-1836) 5′-[…]-3′, generating a PCR product of 799 base pairs. […] Following hybridization, the blots were washed twice at room temperature with 2×SSC+0.1% SDS, and then twice at 60 degree C. with 0.5×SSC+0.1% SDS, and exposed to X-ray film. The extent of gene induction was determined by densitometry.
After 4 and 8 days, total RNA from duplicate samples was isolated and analyzed for osteocalcin (Osc) and 28S rRNA expression by Northern blotting as described. FIG. 3E is a radiogram of Northern blotting for osteocalcin mRNA in M2 cells exposed to a control or combination of oxysterols for 4 or 8 days. FIG. 3F is a bar graph depicting the relative demsometric units of osteocalcin mRNA in M2 cells exposed to a control or combination of oxysterols for 4 or 8 days. Data from densitometric analysis of the Northern blot is shown in (F) as the average of duplicate samples, normalized to 28S rRNA.
RNA Isolation and Northern Blot Analysis—Total RNA was isolated using the RNA isolation kit from Stratagene (La Jolla, Calif., USA). Northern blotting and analysis of osteocalcin mRNA and 18S rRNA expression was performed as previously described (23).

M2 cells = experiment: Troglitazone-induced adipogenesis, oil Red O staining and adipocyte count; assay type: cell-based, mouse; settings: troglitazone 10 μM, oxysterols 10 μM, 8-10 days
Procedure: (§1) Von Kossa and oil red O staining—Matrix mineralization in cell monolayers was detected by silver nitrate staining as previously described. Oil red O staining for detection of adipocytes was performed as previously described.
Test 1: M2 cells at 90% confluence were treated with vehicle (C), PPAR-γ activator, troglitazone 10 uM (Tro), alone or in combination with 10 μM oxysterols 20S-, 22R-, or 25S-hydroxycholesterol. After 8 days, adipocytes were identified by oil Red 0 staining and quantified by counting under a phase contrast microscope. FIG. 6A is a bar graph depicting the effect of oxysterols on reducing adipogenesis of MSC.
Test 2: (A) M2 cells at confluence were treated in RPMI containing 10% FBS with control vehicle or 10 μM troglitazone (Tro) in the absence or presence of 10 μM 20S or 22S oxysterols. After 10 days, adipocytes were visualized by oil Red O staining and quantified by light microscopy, shown in (B). […] (C) M2 cells were treated at confluence with 10 μM Tro, alone or in combination with 10 μM 20S oxysterol. After 10 days, total RNA was isolated and analyzed for lipoprotein lipase (LPL), adipocyte P2 gene (aP2) or 18S rRNA expression by Northern blotting as described (Ref). Data from densitometric analysis of the Northern blot is shown in (D) as the average of duplicate samples, normalized to 18S rRNA.

[1] = test system: M2-10B4 marrow stromal cells; experiment: Colorimetric alkaline phosphatase (ALP) activity assay on whole cell extracts; settings: for alkaline phosphatase activity (induction): M2 cells in osteogenic medium, oxysterols 0.5-10 μM, 3-4 days; for alkaline phosphatase activity: ligands used at 10 μM, control 18±2, ±SD; for Enzyme Activity (units/mg total cellular protein) ± SD: alkaline phosphatase, oxysterols 5 μM, 4 days, untreated 6 ± 3; for inhibition of oxysterol-induced alkaline phosphatase activity: M2 cells pretreated with inhibitor, then 22R+20S oxysterols, 3 days; for alkaline phosphatase activity, synergy with oxysterols: marrow stromal cells, BMP with oxysterols
Procedure: Alkaline phosphatase activity assay: Colorimetric alkaline phosphatase (ALP) activity assay on whole cell extracts was performed as previously described.
Test 1: M2 cells at confluence were treated with control vehicle (C), or 10 µM oxysterols, in an osteogenic medium consisting of RPMI 1640 to which 10% fetal bovine serum (FBS), 50 µg/ml ascorbate and 3 mM beta-glycerophosphate (□GP) were added. After 3 days of incubation, alkaline phosphatase (ALP) activity was determined in cell homogenates by a colorimetric assay.
M2 cells at confluence were treated in osteogenic medium with control vehicle (C) or a combination of 22R and 20S oxysterols, at the indicated concentrations. ALP activity was measured after 3 days as described above.
Test 2: M2 cells were grown in RPMI medium containing 10% fetal bovine serum (FBS). At confluence, the cells were treated in RPMI containing 5% FBS plus ascorbate at 50 μg/ml and β-glycerophosphate at 3 mM to induce osteoblastic differentiation. Adipogenic differentiation was induced by treating the cells in growth medium plus 10˜M troglitazone. A vehicle (C) or oxysterol treatment was applied to cells in a variety of doses (in μM): 20S-Hydroxycholesterol, 25-Hydroxycholesterol, 22R-Hydroxycholesterol; 22S-Hydroxycholesterol; 7-ketocholesterol. Cells were always treated at 90% confluence. After 4 days, alkaline phosphatase activity was determined in whole cell lysates and normalized to protein. Alternatively, MSC cultures were prepared and treated with oxysterols as described above. Cells were treated at 90% confluence with the combination of 22R-Hydroxycholesterol and 20S-Hydroxycholesterol, each at 5 μM, for 4 to 96 hours. The oxysterols where removed and fresh media without oxysterols was added for a total duration of 96 hours. Alkaline phosphatase activity was measured in whole cell extracts and normalized to protein.
Cells were treated with the oxysterols (5 μM) for 4 days after which they were collected and analyzed by colorimetric assay for alkaline phosphatase activity. Results from a representative experiment are shown as the average of quadruplicate determination ±SD.

marrow stromal cells = experiment: Markers of osteogenic differentiation in marrow stromal cells (ALP, osteocalcin mRNA, mineral formation); assay type: cell-based, mouse; settings: for osteogenic property (markers of osteoblastic differentiation): alone or in combination with originally described oxysterols
Procedure: Next, a combination of 22R and 20S oxysterols (RS, 2.5 μM each) were added in the presence or absence of SC as indicated. After 3 days, ALP activity was measured as described earlier. […] (B) M2 cells were treated as described in (A) and after 10 days matrix mineralization in cultures was quantified by a ^45Ca incorporation assay as described earlier. […] (C) M2 cells were pretreated with 20 μM SC for 4 hours, followed by the addition of RS in the presence or absence of SC as described above. After 8 days, total RNA was isolated and analyzed for osteocalcin (Osc) and […] expression by Northern blotting as previously described. Data from densitometric analysis of the Northern blot is shown in (D) as the average of duplicate samples, normalized to 18S rRNA. (E) M2 cells at confluence were pretreated for 2 hours with control vehicle (C), or PLA2 inhibitors ACA (25 μM) and AACOCF3 (AAC, 20 μM), in osteogenic medium. Next, a combination of 22R and 20S oxysterols (RS, 2.5 μM) was added in the presence or absence of the inhibitors as indicated. After 3 days, ALP activity was measured as previously described. […] (F) M2 cells were treated as described in (E). After 10 days, matrix mineralization in cultures was quantified using a ^45Ca incorporation assay as previously described. Results from a representative of three experiments are shown, reported as the mean of quadruplicate determinations±SD, normalized to protein concentration (p<0.01 for RS vs. RS+ACA and RS+AAC).
The purpose of the study was to identify other osteogenic and anti-adipogenic oxysterols based on the chemical structure of previously identified oxysterols. We tested the ability of such candidate oxysterol molecules to induce the formation of osteoblastic cells in cultures of marrow stromal cells, which are progenitors of osteoblastic cells that make bone. In order to assess osteogenic differentiation of cells, one or more markers of osteogenic differentiation were measured in untreated cells and cells treated with the test oxysterols. These markers included: alkaline phosphatase activity, osteocalcin mRNA expression and mineral formation in cultures of marrow stromal cells. Activation of either one or more than one marker by a single or combination oxysterols is indicative of their osteogenic property.

[2] = test system: M2-10B4 marrow stromal cells; experiment: Matrix mineralization (45Ca incorporation assay, von Kossa staining); assay type: cell-based, mouse; settings: for mineralization: M2 cells in osteogenic medium, 10-14 days; for inhibition of oxysterol-induced mineralization: M2 cells pretreated with inhibitor, then 22R+20S oxysterols, 10 days; for mineralization, synergy with oxysterols: marrow stromal cells, BMP with oxysterols
Procedure: as §1
^45Ca incorporation assay—Matrix mineralization in cell monolayers was quantified using the ^45Ca incorporation assay as previously described.
After 14 days, mineralization was identified by a von Kossa staining, which appears black. FIG. 3C is a depiction of von Kossa staining of M2 cells exposed to various conditions. […]

CC(C)CCC[C@@H](C)[C@H]1CC[C@H]2[C@@H]3CC=C4[C@@H](O)[C@@H](O)CC[C@]4(C)[C@H]3CC[C@]12C [4beta-hydroxycholesterol]
osteocalcin mRNA (osteocalcin mRNA; M2-10B4 cells treated for eight days, FIG. 20): moderate increase

CC(C)CCC[C@@H](C)[C@H]1CC[C@H]2[C@@H]3C(=O)C=C4C[C@@H](O)CC[C@]4(C)[C@H]3CC[C@]12C [7-ketocholesterol, reference compound]
inhibition of adipogenesis (M2 cells): unable to inhibit adipogenesis
alkaline phosphatase activity (induction) [1]: did not induce alkaline phosphatase activity

CC(C)CCC[C@@H](C)[C@H]1CC[C@H]2[C@@H]3[C@H](O)C=C4C[C@@H](O)CC[C@]4(C)[C@H]3CC[C@]12C [7alpha-hydroxycholesterol, reference compound]
osteogenic property (markers of osteoblastic differentiation) (marrow stromal cells): did not appear to affect any measures of osteoblastic differentiation

CC(C)CC[C@@H](O)[C@@H](C)[C@H]1CC[C@H]2[C@@H]3CC=C4C[C@@H](O)CC[C@]4(C)[C@H]3CC[C@]12C [22R-hydroxycholesterol]
mineralization [2]: unable to induce
osteocalcin gene expression (osteocalcin mRNA): unable to induce
inhibition of adipogenesis (M2 cells): inhibited adipogenesis
alkaline phosphatase activity (induction) [1]: induced alkaline phosphatase activity
alkaline phosphatase activity ([1]; M2 cells): 45±5 activity units/mg protein

CC(C)CC[C@H](O)[C@@H](C)[C@H]1CC[C@H]2[C@@H]3CC=C4C[C@@H](O)CC[C@]4(C)[C@H]3CC[C@]12C [22S-hydroxycholesterol]
mineralization [2]: unable to induce
osteocalcin gene expression (osteocalcin mRNA): unable to induce
inhibition of adipogenesis (M2 cells): inhibited adipogenesis
alkaline phosphatase activity (induction) [1]: induced alkaline phosphatase activity

CC(C)C(O)CC[C@@H](C)[C@H]1CC[C@H]2[C@@H]3CC=C4C[C@@H](O)CC[C@]4(C)[C@H]3CC[C@]12C (stereo partly shown) [24-hydroxycholesterol]
osteogenic property (markers of osteoblastic differentiation) (marrow stromal cells): osteoinductive
Enzyme Activity (units/mg total cellular protein) ± SD [1]: 250 ± 20 units/mg total cellular protein

C[C@H](CC[C@@H]1OC1(C)C)[C@H]1CC[C@H]2[C@@H]3CC=C4C[C@@H](O)CC[C@]4(C)[C@H]3CC[C@]12C [24S,25-epoxycholesterol]
osteogenic property (markers of osteoblastic differentiation) (marrow stromal cells): osteoinductive
Enzyme Activity (units/mg total cellular protein) ± SD [1]: 1,588 ± 19 units/mg total cellular protein

C[C@@H](CO)CCC[C@@H](C)[C@H]1CC[C@H]2[C@@H]3CC=C4C[C@@H](O)CC[C@]4(C)[C@H]3CC[C@]12C [26-hydroxycholesterol]
osteogenic property (markers of osteoblastic differentiation) (marrow stromal cells): osteoinductive
Enzyme Activity (units/mg total cellular protein) ± SD [1]: 655 ± 93 units/mg total cellular protein

CCCCC/C=C\C/C=C\C/C=C\C/C=C\CCCC(=O)C(F)(F)F [AACOCF3, reference compound]
inhibition of oxysterol-induced mineralization [2]: inhibited
inhibition of oxysterol-induced alkaline phosphatase activity [1]: inhibited

CCCCCc1ccc(/C=C/C(=O)Nc2ccccc2C(=O)O)cc1 [ACA, reference compound]
inhibition of oxysterol-induced mineralization [2]: inhibited
inhibition of oxysterol-induced alkaline phosphatase activity [1]: inhibited

CS(=O)(=O)Nc1ccc([N+](=O)[O-])cc1OC1CCCCC1 [NS-398, reference compound]
highest non-toxic dose (marrow stromal cells; M2 cells): 20 µM
inhibition of the osteogenic effects of oxysterol combinations (marrow stromal cells; SC-560 at 1-20 μM, NS-398 at 20 μM): negligible inhibitory effects

COc1cccc(-c2cc(=O)c3ccccc3o2)c1N [PD98059, reference compound]
inhibition of oxysterol-induced mineralization [2]: inhibited
inhibition of oxysterol-induced osteocalcin gene expression (osteocalcin mRNA; M2 cells pretreated with inhibitor, then 22R+20S oxysterols, 8 days): not

O=S(=O)(c1ccccc1)N(CC(F)(F)F)c1ccc(C(O)(C(F)(F)F)C(F)(F)F)cc1 [TO, TO-901317, reference compound]
mineralization [2]: did not induce
osteocalcin gene expression (osteocalcin mRNA): did not induce
inhibition of alkaline phosphatase activity ([1]; M2 cells, TO at 1-10 μM): dose-dependent inhibition
alkaline phosphatase activity ([1]; M2 cells): 3±0.5 activity units/mg protein

BMP14: bone morphogenic protein 14
mineralization, synergy with oxysterols [2]: synergistically induced
osteocalcin expression, synergy with osteogenic oxysterols (osteocalcin mRNA): synergistic induction
alkaline phosphatase activity, synergy with oxysterols [1]: synergistically induced

B1: BMP7: bone morphogenic protein 7 (protein, UniProt P18075 293-431, looked up)
Bone morphogenetic protein 7: STGSKQRSQNRSKTPKNQEALRMANVAENSSSDQRQACKKHELYVSFRDLGWQDWIIAPEGYAAYYCEGECAFPLNSYMNATNHAIVQTLVHFINPETVPKPCCAPTQLNAISVLYFDDSSNVILKKYRNMVVRACGCH
mineralization, synergy with oxysterols [2]: synergistically induced
osteocalcin expression, synergy with osteogenic oxysterols (osteocalcin mRNA): synergistic induction
alkaline phosphatase activity, synergy with oxysterols [1]: synergistically induced
